Tests used:
[1] = target: T1, Orexin/Hypocretin receptor type 1 (Homo sapiens, UniProt O43613); assay: Antagonist activity at human recombinant OX1R expressed in CHOK1 cells assessed as inhibition of orexin A-induced intracellular Ca2+ release preincubated for 30 mins followed by orexin-A stimulation by Fluo4-AM dye based fluorescence analysis; assay type: functional, cell-based, CHO-K1
T1 sequence (O43613 whole entry): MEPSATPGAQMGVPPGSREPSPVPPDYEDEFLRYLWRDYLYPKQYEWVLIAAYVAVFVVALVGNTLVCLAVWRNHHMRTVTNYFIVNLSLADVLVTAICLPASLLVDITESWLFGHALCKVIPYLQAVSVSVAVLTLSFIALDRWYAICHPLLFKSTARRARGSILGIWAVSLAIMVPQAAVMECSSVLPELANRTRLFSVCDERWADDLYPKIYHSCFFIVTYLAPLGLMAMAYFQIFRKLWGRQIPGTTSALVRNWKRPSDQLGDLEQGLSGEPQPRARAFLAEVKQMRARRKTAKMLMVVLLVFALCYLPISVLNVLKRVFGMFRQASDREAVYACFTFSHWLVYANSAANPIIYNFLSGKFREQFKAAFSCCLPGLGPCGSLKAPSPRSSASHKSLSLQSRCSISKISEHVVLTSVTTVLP

Orexin receptor type 2 = target: T2, Orexin receptor type 2 (Homo sapiens, UniProt O43614); assay: Antagonist activity at human recombinant OX2R expressed in CHOK1 cells assessed as inhibition of orexin A-induced intracellular Ca2+ release preincubated for 30 mins followed by orexin-A stimulation by Fluo-4AM dye based fluorescence analysis; assay type: functional, cell-based, CHO-K1
T2 sequence (O43614 whole entry): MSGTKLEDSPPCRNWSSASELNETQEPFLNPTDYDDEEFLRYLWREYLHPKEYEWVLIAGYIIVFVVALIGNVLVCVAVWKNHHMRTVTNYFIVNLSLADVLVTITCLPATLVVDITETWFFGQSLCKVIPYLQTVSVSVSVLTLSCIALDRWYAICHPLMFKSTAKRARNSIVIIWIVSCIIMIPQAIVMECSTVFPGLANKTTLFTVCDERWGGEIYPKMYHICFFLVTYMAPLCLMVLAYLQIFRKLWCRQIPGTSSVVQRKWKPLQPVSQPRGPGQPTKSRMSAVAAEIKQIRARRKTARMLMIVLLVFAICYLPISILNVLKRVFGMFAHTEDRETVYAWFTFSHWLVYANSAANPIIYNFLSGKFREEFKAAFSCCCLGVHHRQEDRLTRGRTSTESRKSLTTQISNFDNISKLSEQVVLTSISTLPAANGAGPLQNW

[2] = Drug metabolism in human liver microsomes incubated for 15 mins; assay type: ADME, Microsome; conditions: read-out: Drug metabolism
P-gp (ABCB1) = P-gp (ABCB1) (Homo sapiens, UniProt P08183); assay: Substrate activity at P-gp (unknown origin) assessed as efflux ratio; assay type: ADME; conditions: not told
[3] = Lipophilicity, log D of the compound at pH 7.4 by HPLC analysis; assay type: physicochemical; conditions: buffer
Cytochrome P450 3A4 = Cytochrome P450 3A4 (Homo sapiens, UniProt P08684); assay: Time dependent inhibition of CYP3A4 (unknown origin); assay type: ADME
[4] = target: Voltage-gated inwardly rectifying potassium channel KCNH2 (Homo sapiens, UniProt Q12809); assay: Inhibition of human ERG
Chain of Voltage-gated inwardly rectifying potassium channel KCNH2 (Q12809 whole entry): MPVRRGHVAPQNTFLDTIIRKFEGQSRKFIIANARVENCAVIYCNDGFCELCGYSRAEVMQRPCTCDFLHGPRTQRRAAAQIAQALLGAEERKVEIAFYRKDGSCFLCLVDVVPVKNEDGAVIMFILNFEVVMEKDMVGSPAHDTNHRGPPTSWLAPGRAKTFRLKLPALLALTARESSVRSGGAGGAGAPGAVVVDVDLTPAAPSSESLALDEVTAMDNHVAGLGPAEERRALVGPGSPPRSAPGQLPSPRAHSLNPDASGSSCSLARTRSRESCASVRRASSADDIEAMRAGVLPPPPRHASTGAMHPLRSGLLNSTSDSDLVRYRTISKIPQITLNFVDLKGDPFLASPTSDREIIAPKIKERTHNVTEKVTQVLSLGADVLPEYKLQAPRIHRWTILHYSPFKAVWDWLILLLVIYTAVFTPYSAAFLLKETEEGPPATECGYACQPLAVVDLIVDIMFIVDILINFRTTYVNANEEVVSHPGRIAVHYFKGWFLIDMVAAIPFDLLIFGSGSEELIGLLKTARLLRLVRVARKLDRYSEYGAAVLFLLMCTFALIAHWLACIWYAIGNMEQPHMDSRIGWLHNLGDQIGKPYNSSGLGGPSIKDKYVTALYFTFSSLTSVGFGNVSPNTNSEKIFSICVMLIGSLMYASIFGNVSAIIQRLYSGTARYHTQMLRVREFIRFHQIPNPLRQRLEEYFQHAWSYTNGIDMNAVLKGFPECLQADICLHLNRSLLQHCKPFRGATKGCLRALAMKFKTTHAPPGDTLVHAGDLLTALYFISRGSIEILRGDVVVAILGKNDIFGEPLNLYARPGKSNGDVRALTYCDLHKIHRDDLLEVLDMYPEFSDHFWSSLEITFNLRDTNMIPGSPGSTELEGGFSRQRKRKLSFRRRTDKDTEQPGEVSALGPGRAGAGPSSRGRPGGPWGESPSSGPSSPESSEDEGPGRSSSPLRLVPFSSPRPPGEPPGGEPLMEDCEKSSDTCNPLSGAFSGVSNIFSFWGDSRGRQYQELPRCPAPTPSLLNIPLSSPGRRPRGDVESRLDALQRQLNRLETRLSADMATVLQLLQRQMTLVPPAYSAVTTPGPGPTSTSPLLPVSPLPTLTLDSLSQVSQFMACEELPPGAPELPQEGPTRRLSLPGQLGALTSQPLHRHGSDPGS

Chain of P-gp (ABCB1) (P08183 whole entry): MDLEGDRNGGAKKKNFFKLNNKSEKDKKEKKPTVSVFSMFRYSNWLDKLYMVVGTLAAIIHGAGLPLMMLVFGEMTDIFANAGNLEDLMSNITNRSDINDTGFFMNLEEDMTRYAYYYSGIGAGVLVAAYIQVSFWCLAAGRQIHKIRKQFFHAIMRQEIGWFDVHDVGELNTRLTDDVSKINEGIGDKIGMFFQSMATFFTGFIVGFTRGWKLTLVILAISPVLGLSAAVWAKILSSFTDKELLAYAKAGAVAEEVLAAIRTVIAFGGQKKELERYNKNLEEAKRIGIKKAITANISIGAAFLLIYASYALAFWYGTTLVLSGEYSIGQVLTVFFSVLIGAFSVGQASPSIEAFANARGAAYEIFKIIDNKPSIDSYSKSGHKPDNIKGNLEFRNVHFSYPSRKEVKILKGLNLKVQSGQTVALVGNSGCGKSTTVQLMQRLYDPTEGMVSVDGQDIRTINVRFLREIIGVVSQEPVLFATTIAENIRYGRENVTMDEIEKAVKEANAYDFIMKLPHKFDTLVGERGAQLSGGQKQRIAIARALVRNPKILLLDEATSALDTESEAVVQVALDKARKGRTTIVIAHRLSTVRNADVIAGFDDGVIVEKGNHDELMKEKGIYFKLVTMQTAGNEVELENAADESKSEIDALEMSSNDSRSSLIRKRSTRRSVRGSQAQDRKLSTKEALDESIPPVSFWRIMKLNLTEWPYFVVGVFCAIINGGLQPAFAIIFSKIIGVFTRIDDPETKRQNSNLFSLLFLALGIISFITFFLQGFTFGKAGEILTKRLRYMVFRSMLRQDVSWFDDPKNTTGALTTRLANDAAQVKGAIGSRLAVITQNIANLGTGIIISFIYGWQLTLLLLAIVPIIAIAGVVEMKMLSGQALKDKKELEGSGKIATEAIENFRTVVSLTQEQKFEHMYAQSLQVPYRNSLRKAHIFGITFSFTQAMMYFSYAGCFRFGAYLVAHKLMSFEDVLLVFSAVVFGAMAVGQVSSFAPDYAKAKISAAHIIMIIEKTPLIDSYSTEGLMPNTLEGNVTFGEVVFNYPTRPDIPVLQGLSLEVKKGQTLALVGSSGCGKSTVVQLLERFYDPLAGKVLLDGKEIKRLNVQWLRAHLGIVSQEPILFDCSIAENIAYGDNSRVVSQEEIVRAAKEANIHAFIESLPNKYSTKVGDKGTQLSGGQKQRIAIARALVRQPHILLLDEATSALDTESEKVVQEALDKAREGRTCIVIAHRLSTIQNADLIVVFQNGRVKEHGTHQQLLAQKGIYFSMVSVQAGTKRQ
Chain of Cytochrome P450 3A4 (P08684 whole entry): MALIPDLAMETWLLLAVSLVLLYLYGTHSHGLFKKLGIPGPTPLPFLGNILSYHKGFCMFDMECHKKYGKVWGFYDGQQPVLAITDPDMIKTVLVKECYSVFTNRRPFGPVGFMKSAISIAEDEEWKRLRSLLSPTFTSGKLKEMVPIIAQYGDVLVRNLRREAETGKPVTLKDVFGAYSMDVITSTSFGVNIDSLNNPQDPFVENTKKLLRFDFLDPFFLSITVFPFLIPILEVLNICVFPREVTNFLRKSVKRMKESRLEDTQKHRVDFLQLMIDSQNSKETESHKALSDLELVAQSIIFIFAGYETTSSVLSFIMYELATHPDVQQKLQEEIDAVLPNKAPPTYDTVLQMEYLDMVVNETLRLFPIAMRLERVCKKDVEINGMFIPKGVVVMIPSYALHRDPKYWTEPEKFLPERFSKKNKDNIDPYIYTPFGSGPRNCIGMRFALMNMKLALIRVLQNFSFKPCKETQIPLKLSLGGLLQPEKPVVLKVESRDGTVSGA

Compound | IC50 [1] [nM] | IC50 (Orexin receptor type 2) [nM] | metabolised at 0.25 h [2] [%] | efflux ratio (P-gp (ABCB1)) | logD [3] | inhibition (INH) (Cytochrome P450 3A4) | inhibition (INH) [4]
O=C(c1ccccc1-n1nccn1)N1CCCO[C@H]1Cn1ccc(-c2ccc(F)cn2)n1 | 3.76 | 2.62 | 14.6 | 3.25 | 2.3 |  | 
Cc1ccc(-c2ncccn2)c(C(=O)N2CCCO[C@H]2Cn2ccc(-c3ccc(F)cn3)n2)c1 | 3.29 | 3.18 | 26.3 | 6.74 | 2.36 |  | 
Cc1ccc(-n2nccn2)c(C(=O)N2CCOC[C@H]2Cn2ccc(-c3ccc(F)cn3)n2)c1 | 3.5 | 15 | 24.5 | 3.56 | 2.33 |  | 
CCN(CCn1ccc(-c2ccc(F)cn2)n1)C(=O)c1cc(C)ccc1-n1nccn1 |  |  | 20.2 | 1.51 | 2.78 |  | 
Cc1ccc(-n2nccn2)c(C(=O)N2CSC[C@H]2Cn2ccc(-c3ccc(F)cn3)n2)c1 | 4.6 | 13.1 | 73.7 | 1.13 | 3.08 |  | 
Cc1ccc(-n2nccn2)c(C(=O)N2CCCC[C@H]2Cn2ccc(-c3ccc(F)cn3)n2)c1 | 2.27 | 1.64 | 51.9 | 1.63 | 2.96 |  | 
Cc1ccc(-n2nccn2)c(C(=O)N2CCCC[C@@H]2Cn2ccc(-c3ccc(F)cn3)n2)c1 | 20.8 | 52.4 |  |  | 2.95 |  | 
Cc1ccc(-n2nccn2)c(C(=O)N2CCS[C@H]2Cn2ccc(-c3ccc(F)cn3)n2)c1 | 61.1 | 2300 | 53 | 1.34 | 3.51 |  | 
Cc1ccc(-n2nccn2)c(C(=O)N2COCC[C@H]2Cn2ccc(-c3ccc(F)cn3)n2)c1 | 3.36 | 3.41 | 24.1 | 3.08 | 2.39 |  | 
Cc1ccc(-n2nccn2)c(C(=O)N2COC[C@H]2Cn2ccc(-c3ccc(F)cn3)n2)c1 | 149 | 133 | 18 | 1.65 | 2.52 |  | 
O=C(c1cc(F)ccc1-c1ncccn1)N1CCCO[C@H]1Cn1ccc(-c2ccc(F)cn2)n1 | 3.22 | 4.58 | 28.9 | 5.36 | 2.3 |  | 
Cc1ccc(-n2nccn2)c(C(=O)N2CCC[C@@H]2Cn2ccc(-c3ccc(F)cn3)n2)c1 | 363 | 313 |  |  | 3.06 |  | 
Cc1ccc(-n2nccn2)c(C(=O)N2CCCO[C@@H]2Cn2ccc(-c3ccc(F)cn3)n2)c1 | 344 | 274 |  |  | 2.56 |  | 
Cc1ccc(-n2nccn2)c(C(=O)N2CCC[C@H]2Cn2ccc(-c3ccc(F)cn3)n2)c1 | 3.3 | 3.15 | 37.2 | 1.96 | 3.08 |  | 

The next lines start with results.

IC50 [1] [nM] | IC50 (Orexin receptor type 2) [nM] | metabolised at 0.25 h [2] [%] | efflux ratio (P-gp (ABCB1)) | logD [3] | inhibition (INH) (Cytochrome P450 3A4) | Compound | inhibition (INH) [4]
2.9 | 1.88 | 16.4 | 1.38 | 2.8 |  | Cc1ccc(-n2nccn2)c(C(=O)N2CCCO[C@H]2Cn2ncc(-c3ccc(F)cn3)n2)c1 | 
3.95 | 1.96 | 43.2 | 2.64 | 2.46 |  | O=C(c1cc(F)ccc1-n1nccn1)N1CCCO[C@H]1Cn1ccc(-c2ccc(F)cn2)n1 | 
3.98 |  | 29.7 |  | 3.03 |  | Cc1ccc(-n2nccn2)c(C(=O)N2CCCO[C@H]2Cc2cnn(-c3ccc(F)cn3)c2)c1 | 
4.54 | 3.6 | 19.5 | 3.06 | 2.53 |  | Cc1ccc(-n2nccn2)c(C(=O)N2CCCO[C@H]2Cc2noc(-c3ccc(F)cn3)n2)c1 | 
5.39 |  | 15.8 |  | 2.38 |  | Cc1ccc(-n2nccn2)c(C(=O)N2CCCO[C@H]2Cn2cc(-c3ccc(F)cn3)cn2)c1 | 
85.5 | 5.4 | 15.6 | 2.88 | 2.52 |  | Cc1ccc(-n2nccn2)c(C(=O)N2CCCO[C@H]2Cn2ncn(-c3ccc(F)cn3)c2=O)c1 | 
12.1 | 3.07 | 4.3 | 4.97 | 2.38 |  | Cc1ccc(-n2nccn2)c(C(=O)N2CCCO[C@H]2Cn2cc(-c3ccc(F)cn3)nn2)c1 | 
2.21 |  | 24.8 |  | 3.15 | Active | Cc1ccc(-n2nccn2)c(C(=O)N2CCCO[C@H]2Cn2cc(-c3ccc(F)cc3)cn2)c1 | Active
8.08 |  | 15.7 |  | 2.67 |  | Cc1ccc(-n2nccn2)c(C(=O)N2CCO[C@H]2Cn2ccc(-c3ccc(F)cn3)n2)c1 | 
2690 |  |  |  | 2.68 |  | Cc1ccc(-n2nccn2)c(C(=O)N2CCO[C@@H]2Cn2ccc(-c3ccc(F)cn3)n2)c1 | 

— ChEMBL document CHEMBL4622874, “Discovery of ORN0829, a potent dual orexin 1/2 receptor antagonist for the treatment of insomnia” (Bioorg Med Chem, 2020)
